Results on 12 compounds are retold here after ChEMBL document CHEMBL1201862, “PubChem BioAssay data set” (2004).

Activity calls are given as the source filed them. Bounds are passed on as bounds.

In assay [1] the target is T1, Nuclear receptor subfamily 0 group B member 1 (Homo sapiens, UniProt P51843).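 Note: HEK293T cells transfected with SF-1 and DAX-1 plus StAR promoter luciferase reporter.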
T1 sequence (P51843 whole entry): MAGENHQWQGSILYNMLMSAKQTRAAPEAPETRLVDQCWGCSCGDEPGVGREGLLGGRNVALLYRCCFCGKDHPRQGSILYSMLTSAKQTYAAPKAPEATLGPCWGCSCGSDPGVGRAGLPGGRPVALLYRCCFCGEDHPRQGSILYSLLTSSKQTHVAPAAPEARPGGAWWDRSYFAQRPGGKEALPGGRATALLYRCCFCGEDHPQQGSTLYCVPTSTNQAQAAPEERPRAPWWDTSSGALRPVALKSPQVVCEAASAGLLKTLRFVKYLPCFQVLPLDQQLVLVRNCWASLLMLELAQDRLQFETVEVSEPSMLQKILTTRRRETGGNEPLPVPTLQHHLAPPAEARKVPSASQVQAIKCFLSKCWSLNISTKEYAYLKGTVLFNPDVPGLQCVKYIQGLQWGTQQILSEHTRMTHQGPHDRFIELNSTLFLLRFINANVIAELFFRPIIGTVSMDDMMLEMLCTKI
The class given is functional, cell-based.

The nature of the next assay: cells. It counts as functional, cell-based.
In assay [2] the target is T2, Fructose-bisphosphate aldolase (Mycobacterium tuberculosis, UniProt P9WQA3).
T2 sequence (P9WQA3 whole entry): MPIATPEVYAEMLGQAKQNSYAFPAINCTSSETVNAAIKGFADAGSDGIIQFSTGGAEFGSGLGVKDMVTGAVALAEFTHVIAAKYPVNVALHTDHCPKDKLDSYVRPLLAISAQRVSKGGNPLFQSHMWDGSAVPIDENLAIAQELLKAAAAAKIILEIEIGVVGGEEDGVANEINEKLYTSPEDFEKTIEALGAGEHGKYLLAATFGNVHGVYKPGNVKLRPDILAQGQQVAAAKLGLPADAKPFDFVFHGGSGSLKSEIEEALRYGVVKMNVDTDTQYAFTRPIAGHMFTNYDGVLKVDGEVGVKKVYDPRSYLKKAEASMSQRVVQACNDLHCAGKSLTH
The experiment in a line: Fluorescence-based biochemical high throughput dose response assay for inhibitors of the fructose-bisphosphate aldolase (FBA) of M. tuberculosis. It counts as functional.

In assay [3] the target is T3, Adenosylmethionine-8-amino-7-oxononanoate aminotransferase (Mycobacterium tuberculosis, UniProt P9WQ81).
T3 sequence (P9WQ81 whole entry): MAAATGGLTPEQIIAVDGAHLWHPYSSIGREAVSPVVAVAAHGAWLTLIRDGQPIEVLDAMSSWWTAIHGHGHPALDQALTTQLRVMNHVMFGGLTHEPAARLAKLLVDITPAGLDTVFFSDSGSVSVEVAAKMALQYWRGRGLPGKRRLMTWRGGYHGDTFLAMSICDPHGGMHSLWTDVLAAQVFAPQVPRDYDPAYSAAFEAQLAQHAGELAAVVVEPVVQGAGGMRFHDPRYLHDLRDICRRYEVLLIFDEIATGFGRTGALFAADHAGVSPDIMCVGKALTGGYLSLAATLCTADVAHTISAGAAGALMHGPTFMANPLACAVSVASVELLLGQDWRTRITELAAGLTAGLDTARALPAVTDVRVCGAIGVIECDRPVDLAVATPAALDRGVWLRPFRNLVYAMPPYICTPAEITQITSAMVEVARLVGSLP
The experiment in a line: Mycobacterium tuberculosis BioA enzyme inhibitor Measured in Biochemical System Using Plate Reader - 2163-02_Inhibitor_Dose_CherryPick_Activity. The class given is functional, Mycobacterium tuberculosis UT205.

Assay [4] addresses SWI/SNF-related matrix-associated actin-dependent regulator of chromatin subfamily A member 2 (Homo sapiens, UniProt P51531). The experiment in a line: Luminescence-based cell-based high throughput dose response assay to identify activators of the function of SWI/SNF related, matrix associated, actin dependent regulator of chromatin, subfamily a, member 2 (SMARCA2, BRM). It counts as functional.

A short description of assay [5]: inhibitors of firefly luciferase expression or activity, dose response, H4 neuroglioma cells, luminescence (AID 1990). The class given is functional, cell-based.
A short description of assay [6]: Shn3 3'UTR reporter inhibitors, dose response, cell-based, Clone20 osteoblasts, firefly luciferase, cherry-picked (AID 624132).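 Note: firefly luciferase luminescence from reporter carrying the Shn3 3'UTR in osteoblasts.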 It counts as functional.
The nature of assay [7]: Fluorescence-based cell-based high throughput dose response assay for inhibitors of the interaction of nucleotide-binding oligomerization domain containing 2 (NOD2) and the receptor-interacting serine-threonine kinase 2 (RIPK2). It counts as functional. The conditions noted are these: Homo sapiens.
A short description of assay [8]: inhibitors of SNCA 5'UTR-driven reporter translation, confirmation, H4 neuroglioma cells, luminescence (AID 1988). The class given is functional, cell-based.
Assay [9] in a line: control 3'UTR Renilla luciferase suppression, dose response, counter-screen for Shn3 inhibitor project, cell-based, Clone20-Shn3RL, cherry-picked (AID 624133). The class given is functional.
Assay [10] deals with T4, DNA repair protein RAD52 homolog (Homo sapiens, UniProt P43351).
T4 sequence (P43351 whole entry): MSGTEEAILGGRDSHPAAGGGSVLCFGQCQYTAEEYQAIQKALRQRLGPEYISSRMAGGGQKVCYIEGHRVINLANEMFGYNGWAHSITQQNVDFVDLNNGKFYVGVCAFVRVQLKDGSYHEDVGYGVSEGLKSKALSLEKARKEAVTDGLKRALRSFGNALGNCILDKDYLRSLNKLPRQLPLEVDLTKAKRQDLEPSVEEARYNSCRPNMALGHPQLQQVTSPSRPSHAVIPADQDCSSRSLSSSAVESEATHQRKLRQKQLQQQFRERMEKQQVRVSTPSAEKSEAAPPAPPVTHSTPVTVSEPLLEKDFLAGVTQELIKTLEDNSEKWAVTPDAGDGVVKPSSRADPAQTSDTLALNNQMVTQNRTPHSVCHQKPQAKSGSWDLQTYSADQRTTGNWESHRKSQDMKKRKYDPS
It counts as functional, biochemical.

Assay [11] in a line: HepG2 cell cytotoxicity, dose response, cytotoxicity control for Shn3 inhibitor project, CellTiter-Glo, cherry-picked (AID 624134). It counts as functional, cell-based.
A short description of assay [12]: Luminescence Cell-Based Dose Response HTS to Identify Inhibitors of 5'UTR Stem-Loop Driven Prion Protein mRNA Translation in H4 Neuroglioblastoma Cells. [Related pubchem assays: 1827 (Project Summary), 1813 (Primary HTS)]. The class given is functional.
Assay [13] in a line: Counterscreen for activators of the function of SWI/SNF related, matrix associated, actin dependent regulator of chromatin, subfamily a, member 2 (SMARCA2, BRM): Luminescence-based cell-based high throughput dose response assay to identify non-selective compounds using the VP16 reporter assay. The class given is functional. Background: A counterscreen serves to expose hits that act by an unwanted route or on another target.

For assay [14], the target named is T5, Corticotropin-releasing factor receptor 2/Corticotropin-releasing factor-binding protein (Homo sapiens, UniProt P24387+Q13324).
T5 sequence (Q13324 whole entry): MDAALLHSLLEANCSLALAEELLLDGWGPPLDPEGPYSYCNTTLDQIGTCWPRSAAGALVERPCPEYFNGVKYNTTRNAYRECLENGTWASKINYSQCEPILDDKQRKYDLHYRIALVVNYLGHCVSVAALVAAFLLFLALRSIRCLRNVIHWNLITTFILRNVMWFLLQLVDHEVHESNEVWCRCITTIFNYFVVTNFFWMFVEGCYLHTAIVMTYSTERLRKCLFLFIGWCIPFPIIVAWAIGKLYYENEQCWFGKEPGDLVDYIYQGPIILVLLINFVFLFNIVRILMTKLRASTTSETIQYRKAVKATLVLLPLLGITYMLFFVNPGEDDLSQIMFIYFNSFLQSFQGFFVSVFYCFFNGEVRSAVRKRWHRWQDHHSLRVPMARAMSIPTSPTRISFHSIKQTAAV
T5 sequence (P24387 whole entry): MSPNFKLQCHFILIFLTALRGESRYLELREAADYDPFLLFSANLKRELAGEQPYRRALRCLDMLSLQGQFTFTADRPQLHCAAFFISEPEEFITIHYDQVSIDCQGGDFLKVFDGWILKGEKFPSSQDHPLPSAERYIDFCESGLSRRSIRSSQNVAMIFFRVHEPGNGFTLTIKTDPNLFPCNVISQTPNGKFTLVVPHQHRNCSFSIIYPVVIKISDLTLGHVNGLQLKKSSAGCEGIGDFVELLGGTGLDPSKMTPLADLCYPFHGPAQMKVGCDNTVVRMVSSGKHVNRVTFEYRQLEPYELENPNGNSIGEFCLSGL
The experiment in a line: Dose Response confirmation of uHTS hits for small molecule antagonists of the CRF-binding protein and CRF-R2 receptor complex. It counts as functional. Particulars: read-out: IC50_Mean.

The target of assay [15] is T6, Methionyl-tRNA synthetase, putative (Trypanosoma brucei brucei, UniProt Q38C91).
T6 sequence (Q38C91 whole entry): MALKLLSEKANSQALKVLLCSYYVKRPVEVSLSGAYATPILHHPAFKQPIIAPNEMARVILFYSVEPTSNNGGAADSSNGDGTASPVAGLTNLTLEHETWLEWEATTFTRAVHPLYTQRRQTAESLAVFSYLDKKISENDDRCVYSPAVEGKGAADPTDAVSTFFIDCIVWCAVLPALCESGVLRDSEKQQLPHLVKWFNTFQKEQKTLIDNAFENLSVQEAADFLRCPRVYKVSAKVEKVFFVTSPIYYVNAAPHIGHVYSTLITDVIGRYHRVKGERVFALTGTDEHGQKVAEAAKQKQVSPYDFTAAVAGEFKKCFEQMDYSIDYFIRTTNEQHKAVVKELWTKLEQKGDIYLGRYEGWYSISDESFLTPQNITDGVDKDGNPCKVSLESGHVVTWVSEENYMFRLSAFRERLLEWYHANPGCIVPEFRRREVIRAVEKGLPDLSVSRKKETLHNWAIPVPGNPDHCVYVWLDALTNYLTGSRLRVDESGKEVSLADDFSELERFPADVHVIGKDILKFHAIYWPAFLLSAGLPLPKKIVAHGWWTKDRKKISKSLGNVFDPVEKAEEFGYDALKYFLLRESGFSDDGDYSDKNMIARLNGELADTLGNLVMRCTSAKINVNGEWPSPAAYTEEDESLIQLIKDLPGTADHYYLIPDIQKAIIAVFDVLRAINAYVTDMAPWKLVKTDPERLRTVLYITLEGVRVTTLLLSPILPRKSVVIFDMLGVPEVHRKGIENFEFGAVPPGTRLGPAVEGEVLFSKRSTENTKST
It counts as functional, Trypanosoma brucei brucei strain 927/4 GUTat10.1.

For assay [16], the target named is T7, Fatty acid synthase (Homo sapiens, UniProt P49327). The experiment in a line: FAS thioesterase domain inhibitors, dose response, biochemical, kinetic fluorescence intensity (AID 624326).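 Note: rate of fluorescence rise from hydrolysis of a fluorogenic O-methyl fluorescein ester substrate.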 It counts as functional.
T7 sequence (P49327 whole entry, the tested form may be a part): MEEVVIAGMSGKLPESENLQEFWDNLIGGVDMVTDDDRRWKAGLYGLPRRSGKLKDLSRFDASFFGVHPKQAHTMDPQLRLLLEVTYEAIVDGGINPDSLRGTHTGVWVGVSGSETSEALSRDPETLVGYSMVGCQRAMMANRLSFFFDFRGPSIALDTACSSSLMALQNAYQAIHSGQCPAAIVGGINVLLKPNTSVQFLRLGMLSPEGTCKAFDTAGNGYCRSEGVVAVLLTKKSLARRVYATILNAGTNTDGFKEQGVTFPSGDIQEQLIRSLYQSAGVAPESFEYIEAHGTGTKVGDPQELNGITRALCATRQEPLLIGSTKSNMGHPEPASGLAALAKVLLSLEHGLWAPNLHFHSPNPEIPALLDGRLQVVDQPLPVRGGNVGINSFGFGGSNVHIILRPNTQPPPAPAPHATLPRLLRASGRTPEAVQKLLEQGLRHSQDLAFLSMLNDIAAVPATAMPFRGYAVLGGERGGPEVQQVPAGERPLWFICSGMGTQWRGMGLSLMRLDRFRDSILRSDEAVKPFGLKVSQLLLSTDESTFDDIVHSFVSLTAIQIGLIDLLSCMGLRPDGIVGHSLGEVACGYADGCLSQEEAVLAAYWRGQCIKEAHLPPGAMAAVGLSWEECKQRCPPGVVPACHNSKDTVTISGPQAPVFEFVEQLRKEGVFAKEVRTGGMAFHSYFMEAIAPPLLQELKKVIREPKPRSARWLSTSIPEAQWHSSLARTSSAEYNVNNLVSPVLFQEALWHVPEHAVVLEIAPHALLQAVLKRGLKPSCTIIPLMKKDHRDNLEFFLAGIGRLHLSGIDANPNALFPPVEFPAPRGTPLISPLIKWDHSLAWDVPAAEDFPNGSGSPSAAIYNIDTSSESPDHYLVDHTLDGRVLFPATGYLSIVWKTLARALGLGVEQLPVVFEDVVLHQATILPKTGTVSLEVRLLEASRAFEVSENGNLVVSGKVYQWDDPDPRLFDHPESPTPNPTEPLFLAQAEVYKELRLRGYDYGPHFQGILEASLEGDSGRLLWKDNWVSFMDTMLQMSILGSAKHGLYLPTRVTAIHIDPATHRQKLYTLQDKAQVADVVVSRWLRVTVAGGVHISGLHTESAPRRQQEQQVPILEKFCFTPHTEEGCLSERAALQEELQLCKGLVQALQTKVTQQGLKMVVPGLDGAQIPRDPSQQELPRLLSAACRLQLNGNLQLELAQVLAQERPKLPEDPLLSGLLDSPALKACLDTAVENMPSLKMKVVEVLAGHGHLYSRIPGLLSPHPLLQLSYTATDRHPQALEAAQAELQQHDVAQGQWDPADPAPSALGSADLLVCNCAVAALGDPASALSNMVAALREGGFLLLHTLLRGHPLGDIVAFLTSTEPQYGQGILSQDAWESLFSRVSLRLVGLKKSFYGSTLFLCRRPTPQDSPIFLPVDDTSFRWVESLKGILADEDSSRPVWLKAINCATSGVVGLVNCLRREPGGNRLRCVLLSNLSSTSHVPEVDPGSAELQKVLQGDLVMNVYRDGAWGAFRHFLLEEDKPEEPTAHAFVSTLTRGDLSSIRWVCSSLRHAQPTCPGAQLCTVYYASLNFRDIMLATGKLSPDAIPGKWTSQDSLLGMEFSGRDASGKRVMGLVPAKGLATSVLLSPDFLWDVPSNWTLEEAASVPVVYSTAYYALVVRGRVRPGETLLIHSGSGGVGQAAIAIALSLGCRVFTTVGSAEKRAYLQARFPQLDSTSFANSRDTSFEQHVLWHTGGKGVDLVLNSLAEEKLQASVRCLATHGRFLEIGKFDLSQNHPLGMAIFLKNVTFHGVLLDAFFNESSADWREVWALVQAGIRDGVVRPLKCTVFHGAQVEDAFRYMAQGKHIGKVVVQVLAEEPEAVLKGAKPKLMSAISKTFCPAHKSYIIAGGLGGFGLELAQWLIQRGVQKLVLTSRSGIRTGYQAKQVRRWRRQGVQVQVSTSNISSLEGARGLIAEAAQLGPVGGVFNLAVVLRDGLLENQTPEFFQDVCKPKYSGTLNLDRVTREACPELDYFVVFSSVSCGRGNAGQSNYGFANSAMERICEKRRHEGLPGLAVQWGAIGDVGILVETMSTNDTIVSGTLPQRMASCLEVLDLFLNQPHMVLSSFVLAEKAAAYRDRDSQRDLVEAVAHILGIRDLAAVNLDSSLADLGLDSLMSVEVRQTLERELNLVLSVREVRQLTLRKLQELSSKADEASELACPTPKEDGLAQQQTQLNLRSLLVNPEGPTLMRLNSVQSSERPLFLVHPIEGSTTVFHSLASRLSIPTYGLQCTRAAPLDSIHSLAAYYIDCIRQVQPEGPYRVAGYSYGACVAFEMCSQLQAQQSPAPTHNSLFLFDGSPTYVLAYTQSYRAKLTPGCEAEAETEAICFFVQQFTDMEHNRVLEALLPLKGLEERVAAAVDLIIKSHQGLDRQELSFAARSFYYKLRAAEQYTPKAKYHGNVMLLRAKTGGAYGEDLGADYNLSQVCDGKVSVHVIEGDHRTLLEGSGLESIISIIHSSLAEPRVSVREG
The target in assay [17] is T6, Methionyl-tRNA synthetase, putative. It counts as functional, Trypanosoma brucei brucei strain 927/4 GUTat10.1. This is another data set of the same source.
Assay [18] concerns the target T5, Corticotropin-releasing factor receptor 2/Corticotropin-releasing factor-binding protein. The experiment in a line: activators of CRF receptor 2 with binding protein – uHTS hits, confirmation (AID 602473). The class given is functional. Particulars: read-out: EC50_Mean.
Assay [19] concerns the target T7, Fatty acid synthase. The experiment in a line: FAS thioesterase domain inhibitors, dose response, biochemical, endpoint fluorescence intensity, uHTS hits (AID 624327).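 Note: fluorescence from hydrolysis of an O-methyl fluorescein acyl ester substrate by the enzyme.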 It counts as functional.
The nature of assay [20]: Counterscreen for inhibitors of Trypanosoma brucei methionyl tRNA synthetase (MetRS): Luminescence-based cell-based high throughput dose response assay to identify compounds that are cytotoxic to Jurkat human T lymphocyte cells. The class given is functional.

SWI/SNF-related matrix-associated actin-dependent regulator of chromatin subfamily A member 2, sequence (P51531 whole entry): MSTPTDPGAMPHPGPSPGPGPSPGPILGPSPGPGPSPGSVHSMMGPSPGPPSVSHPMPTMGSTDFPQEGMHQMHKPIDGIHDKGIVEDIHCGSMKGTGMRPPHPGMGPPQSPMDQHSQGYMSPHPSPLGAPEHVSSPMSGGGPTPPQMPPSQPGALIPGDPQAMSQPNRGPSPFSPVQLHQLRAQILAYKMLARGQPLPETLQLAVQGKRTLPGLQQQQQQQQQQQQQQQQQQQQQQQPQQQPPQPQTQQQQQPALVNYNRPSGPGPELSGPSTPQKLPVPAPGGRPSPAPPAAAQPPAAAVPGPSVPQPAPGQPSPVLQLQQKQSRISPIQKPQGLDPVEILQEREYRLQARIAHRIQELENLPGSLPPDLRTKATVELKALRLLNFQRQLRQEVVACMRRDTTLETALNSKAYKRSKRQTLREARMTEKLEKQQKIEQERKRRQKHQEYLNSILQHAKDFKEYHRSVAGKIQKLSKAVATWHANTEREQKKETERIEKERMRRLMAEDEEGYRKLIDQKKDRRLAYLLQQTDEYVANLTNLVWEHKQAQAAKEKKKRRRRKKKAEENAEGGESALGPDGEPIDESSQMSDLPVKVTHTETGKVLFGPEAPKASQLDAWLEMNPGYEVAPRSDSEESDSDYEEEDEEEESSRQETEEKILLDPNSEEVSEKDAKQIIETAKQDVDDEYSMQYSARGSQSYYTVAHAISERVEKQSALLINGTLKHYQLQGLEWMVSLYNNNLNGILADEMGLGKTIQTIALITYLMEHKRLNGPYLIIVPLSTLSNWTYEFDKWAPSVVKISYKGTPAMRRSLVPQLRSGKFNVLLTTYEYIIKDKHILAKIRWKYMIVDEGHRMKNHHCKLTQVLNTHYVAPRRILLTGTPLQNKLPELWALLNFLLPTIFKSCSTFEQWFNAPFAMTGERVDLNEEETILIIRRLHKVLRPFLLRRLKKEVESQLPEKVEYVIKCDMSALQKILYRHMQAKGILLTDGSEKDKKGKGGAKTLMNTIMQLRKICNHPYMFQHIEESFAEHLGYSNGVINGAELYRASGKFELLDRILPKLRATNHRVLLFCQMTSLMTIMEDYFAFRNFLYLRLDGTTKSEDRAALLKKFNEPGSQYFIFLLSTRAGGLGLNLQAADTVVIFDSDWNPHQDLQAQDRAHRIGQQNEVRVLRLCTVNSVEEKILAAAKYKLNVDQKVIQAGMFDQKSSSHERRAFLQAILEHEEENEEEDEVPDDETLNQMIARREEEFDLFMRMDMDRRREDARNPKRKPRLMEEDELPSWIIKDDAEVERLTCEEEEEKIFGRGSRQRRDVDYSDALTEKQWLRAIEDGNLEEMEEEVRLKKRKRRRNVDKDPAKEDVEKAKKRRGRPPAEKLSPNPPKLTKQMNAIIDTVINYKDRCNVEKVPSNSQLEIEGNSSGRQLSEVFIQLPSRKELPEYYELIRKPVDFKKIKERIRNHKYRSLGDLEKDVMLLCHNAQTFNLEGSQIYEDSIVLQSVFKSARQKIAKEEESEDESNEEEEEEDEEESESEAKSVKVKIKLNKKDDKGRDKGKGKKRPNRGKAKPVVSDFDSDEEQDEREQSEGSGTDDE

Take `COc1ccc(C(=O)Nc2cccc(OC)c2)cc1`: the IC50 (in [1]; in “cells”) was > 67.6 µM (inactive) throughout.
On to `N#Cc1c(-c2ccc(Br)cc2)cc(-c2cccnc2)nc1N`, for which the IC50 in assay [2] is 1.2 µM (active).
In the case of `Cc1cccnc1NC(=O)COc1ccc2c(c1)CCC2`, the IC50 (in [1]; in “cells”) was > 67.6 µM (inactive) throughout.
`Cc1ccccc1NC(=O)Cn1c(C)nc2ccc(N)cc2c1=O`: the IC50 in [2] was > 1.11 µM (active).
Usually AC50 stands for the concentration giving half of the maximal activity seen. For the compound `O=C(Nc1ccc(NS(=O)(=O)c2ccccc2)cc1)c1cccnc1`, the AC50 in assay [3] is 5.75 µM (active).
For the compound `O=C1CCCc2c1cc(C(=O)NCCCN1CCOCC1)c(=O)n2-c1ccc(Cl)cc1`, in assay [3], the AC50 is 10.1 µM (active).
Turning to `COc1ccc(OC)c2sc(N(CCN(C)C)C(=O)/C=C/c3cccs3)nc12`, the EC50 in assay [4] is > 91.1 µM (inactive); in [5], 8.13 µM (active); in assay [8] it was 6.88 µM (active); in assay [12], 3.18 µM (active); in assay [13], > 91.1 µM (inactive). Besides, the concentration at half-maximal activity (AC50) was 12.8 µM (active) in assay [6], 25.8 µM (active) in assay [9], 10.6 µM (active) in [10] and 19.1 µM (active) in [11]. For the same compound, in [7], the IC50 is 13.3 µM (inactive).
On to `COCCn1c(C)cc(C(=O)COC(=O)c2ccc(Cl)c(S(N)(=O)=O)c2)c1C`, for which the IC50 (in assay [1]; in “cells”) was > 67.5 µM (inactive) throughout.
In the case of `CCOC(=O)C1CCN(C(=O)Nc2ccc3snnc3c2)CC1`, in assay [3], the AC50 is 0.85 µM (active).
Regarding `O=C(C/C=N\OCc1ccc([N+](=O)[O-])cc1)Nc1ccc(Br)cc1`, the IC50 was > 47.1 µM (inactive) in assay [14]; 0.784 µM (active) in assay [15]; 7.6 µM (active) at Fatty acid synthase [16]; 1.25 µM (active) in assay [17]; 10.1 µM (active) at Fatty acid synthase [19]; 83.3 µM (inactive) in assay [20]. Besides, the EC50 in [18] is > 53 µM (inactive).
Consider `N#C/C(=N\Nc1cc(Cl)cc(Cl)c1)c1nnc2n1CCCCC2`, for which the IC50 is 16.6 µM (inactive) in assay [15], 27.4 µM (inactive) in [17] and 83.3 µM (inactive) in assay [20].
As to `Oc1ccccc1/C=N/c1cccc2ccccc12`, the IC50 in assay [2] is > 3.33 µM (active).
